Our source for the Ki values is patent US10562908B2, “Ortho substituted phenylpyrazolo- and phenylpyrrolo-pyridazine derivatives having multimodal activity against pain” (priority 2016, dated 2020).

Test [1] deals with T1, human μ-opioid receptor (Homo sapiens, UniProt P35372).
T1 construct: expressed in transfected cells; host or cells: CHO-K1
The test is described as follows: Human μ-opioid receptor radioligand assay ([3H]-DAMGO). The class given is binding. As for the experimental part:
Human μ-Opioid Receptor Radioligand Assay
To investigate binding properties of test compounds to human μ-opioid receptor, transfected CHO-K1 cell membranes and [^3H]-DAMGO (Perkin Elmer, ES-542-C), as the radioligand, were used. The assay was carried out with 20 μg of membrane suspension, 1 nM of [^3H]-DAMGO in either absence or presence of either buffer or 10 μM Naloxone for total and non-specific binding, respectively. Binding buffer contained Tris-HCl 50 mM, MgCl2 5 mM at pH 7.4. Plates were incubated at 27° C. for 60 minutes. After the incubation period, the reaction mix was then transferred to MultiScreen HTS, FC plates (Millipore), filtered and plates were washed 3 times with ice-cold 10 mM Tris-HCL (pH 7.4). Filters were dried and counted at approximately 40% efficiency in a MicroBeta scintillation counter (Perkin-Elmer) using EcoScint liquid scintillation cocktail, preferably, transfected CHO-K1 cell membranes (20 μg) were incubated with 1 nM of [^3H]-DAMGO in assay buffer containing Tris-HCl 50 mM, MgCl2 5 mM at pH 7.4. NBS (non-specific binding) was measured by adding 10 μM Naloxone. The binding of the test compound was measured at five different concentrations. Plates were incubated at 27° C. for 60 minutes. After the incubation period, the reaction mix was then transferred to MultiScreen HTS, FC plates (Millipore), filtered and plates were washed 3 times with ice-cold 10 mM Tris-HCL (pH 7.4). Filters were dried and counted at approximately 40% efficiency in a MicroBeta scintillation counter (Perkin-Elmer) using EcoScint liquid scintillation cocktail.

Test [2] has as its target Human α2δ-1 subunit of Cav2.2 calcium channel (Homo sapiens, UniProt P54289). The test is described as follows: Human α2δ-1 subunit of Cav2.2 calcium channel assay ([3H]-Gabapentin). The format is binding. As for the experimental part: Human α2δ-1 Subunit of Cav2.2 Calcium Channel Assay
Human α2δ-1 enriched membranes (2.5 μg) were incubated with 15 nM of radiolabeled [3H]-Gabapentin in assay buffer containing Hepes-KOH 10 mM, pH 7.4. NSB (non specific binding) was measured by adding 10 μM pregabalin. After 60 min incubation at 27° C., binding reaction was terminated by filtering through Multiscreen GF/C (Millipore) presoaked in 0.5% polyethyleneimine in Vacuum Manifold Station, followed by 3 washes with ice-cold filtration buffer containing 50 mM Tris-HCl, pH 7.4. Filter plates were dried at 60° C. for 1 hour and 30 μl of scintillation cocktail were added to each well before radioactivity reading. Readings were performed in a Trilux 1450 Microbeta radioactive counter (Perkin Elmer), i.e. Human α2δ-1 enriched membranes (2.5 μg) were incubated with 15 nM of radiolabeled [3H]-Gabapentin in assay buffer containing Hepes-KOH 10 mM, pH 7.4. NSB (non specific binding) was measured by adding 10 μM pregabalin. The binding of the test compound was measured at five different concentrations. After 60 min incubation at 27° C., binding reaction was terminated by filtering through Multiscreen GF/C (Millipore) presoaked in 0.5% polyethyleneimine in Vacuum Manifold Station, followed by 3 washes with ice-cold filtration buffer containing 50 mM Tris-HCl, pH 7.4. Filter plates were dried at 60° C. for 1 hour and 30 μl of scintillation cocktail were added to each well before radioactivity reading. Readings were performed in a Trilux 1450 Microbeta radioactive counter (Perkin Elmer).

[3] abbreviates: transfected CHO-K1 cell membranes, 1 nM [3H]-DAMGO, read-out: Binding μ (Ki).
The mark [4] stands for this setting: human α2δ-1 enriched membranes, 15 nM [3H]-Gabapentin, read-out: Binding α2δ-1 (Ki).

pKi: −log10 of the molar value. Like-named read-outs stand apart in the source and are kept apart here.

T1 sequence (P35372 whole entry): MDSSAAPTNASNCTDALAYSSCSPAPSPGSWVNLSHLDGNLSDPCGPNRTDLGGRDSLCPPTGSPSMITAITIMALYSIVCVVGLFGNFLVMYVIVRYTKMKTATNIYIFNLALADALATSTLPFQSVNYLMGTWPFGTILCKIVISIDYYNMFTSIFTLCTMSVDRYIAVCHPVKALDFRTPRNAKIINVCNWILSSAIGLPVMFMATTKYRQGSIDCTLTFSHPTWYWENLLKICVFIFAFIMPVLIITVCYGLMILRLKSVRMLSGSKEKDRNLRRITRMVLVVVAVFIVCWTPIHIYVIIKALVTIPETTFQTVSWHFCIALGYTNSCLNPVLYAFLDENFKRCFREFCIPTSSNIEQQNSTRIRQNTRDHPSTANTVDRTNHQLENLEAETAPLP
Sequence of Human α2δ-1 subunit of Cav2.2 calcium channel (P54289 25-1103): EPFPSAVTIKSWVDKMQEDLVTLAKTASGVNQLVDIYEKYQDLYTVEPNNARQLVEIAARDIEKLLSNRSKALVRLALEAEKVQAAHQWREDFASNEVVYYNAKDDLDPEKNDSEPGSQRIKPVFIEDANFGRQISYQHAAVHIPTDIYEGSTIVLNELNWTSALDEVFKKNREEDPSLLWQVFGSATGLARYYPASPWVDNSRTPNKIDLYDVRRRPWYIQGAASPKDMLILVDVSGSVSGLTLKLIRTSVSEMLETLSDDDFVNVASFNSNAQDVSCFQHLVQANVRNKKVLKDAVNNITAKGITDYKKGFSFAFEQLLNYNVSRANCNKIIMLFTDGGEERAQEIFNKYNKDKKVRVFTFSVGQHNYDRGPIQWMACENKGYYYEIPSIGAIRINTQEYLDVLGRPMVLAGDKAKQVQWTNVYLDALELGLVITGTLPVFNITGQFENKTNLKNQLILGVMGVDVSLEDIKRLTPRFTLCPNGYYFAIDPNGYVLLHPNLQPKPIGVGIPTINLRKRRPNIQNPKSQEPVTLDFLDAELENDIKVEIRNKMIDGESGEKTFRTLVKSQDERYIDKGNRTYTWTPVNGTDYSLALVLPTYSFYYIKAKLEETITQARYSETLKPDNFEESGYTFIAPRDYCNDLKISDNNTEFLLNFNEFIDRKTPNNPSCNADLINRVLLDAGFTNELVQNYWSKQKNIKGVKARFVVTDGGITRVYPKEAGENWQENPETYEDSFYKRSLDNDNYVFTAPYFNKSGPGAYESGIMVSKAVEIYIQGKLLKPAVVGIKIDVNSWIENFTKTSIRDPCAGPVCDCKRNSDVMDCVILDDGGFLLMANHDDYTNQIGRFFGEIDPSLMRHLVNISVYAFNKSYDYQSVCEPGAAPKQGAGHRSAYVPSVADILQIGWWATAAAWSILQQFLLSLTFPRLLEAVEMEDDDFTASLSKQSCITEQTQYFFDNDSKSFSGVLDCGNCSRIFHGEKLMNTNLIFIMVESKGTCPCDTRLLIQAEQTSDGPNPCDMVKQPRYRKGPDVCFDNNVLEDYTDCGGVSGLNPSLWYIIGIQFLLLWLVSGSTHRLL

On to `Cc1nnc(N(C)C)c2nn(-c3ccccc3OC(c3ccccc3)C3CCN(C)CC3)c(C)c12` (stereo not shown) [Example 54, N,N,3,4-tetramethyl-2-(2-((1-methylpiperidin-4-yl)(phenyl)methoxy)phenyl)-2H-pyrazolo[3,4-d]pyridazin-7-amine], for which the negative-log Ki (pKi) in test [1] (setting [3]) was below 6.30; in test [2] (setting [4]), below 5.30.
For `Cc1nnc(N(C)C)c2nn(-c3ccccc3OC(Cc3ccccc3)CN(C)Cc3ccccc3)c(C)c12` (stereo not shown) [Example 74, 2-(2-((1-(Benzyl(methyl)amino)-3-phenylpropan-2-yl)oxy)phenyl)-N,N,3,4-tetramethyl-2H-pyrazolo[3,4-d]pyridazin-7-amine] the same measures were below 6.30 and below 5.30.
`Cc1nnc(N(C)C)c2nn(-c3ccccc3OC(CCNC3CC3)c3ccccc3)c(C)c12` (stereo not shown) [Example 27, 2-(2-(3-(cyclopropylamino)-1-phenylpropoxy)phenyl)-N,N,3,4-tetramethyl-2H-pyrazolo[3,4-d]pyridazin-7-amine]: the pKi in test [1] is 6.30 to 7.00; in test [2], 5.30 to 6.30.
In the case of `CNCCC(Oc1ccc(O)cc1-n1nc2c(N(C)C)nnc(C)c2c1C)c1ccccc1` (stereo not shown) [Example 97, 3-(7-(Dimethylamino)-3,4-dimethyl-2H-pyrazolo[3,4-d]pyridazin-2-yl)-4-(3-(methylamino)-1-phenylpropoxy)phenol], the negative-log Ki (pKi) is below 6.30 in test [1] (setting [3]) and 5.30 to 6.30 in test [2] (setting [4]).
For `CNCCC(Oc1ccccc1-n1nc2c(N3CCC3)nnc(C)c2c1C)c1ccccc1` (stereo not shown) [Example 39, 3-(2-(7-(azetidin-1-yl)-3,4-dimethyl-2H-pyrazolo[3,4-d]pyridazin-2-yl)phenoxy)-N-methyl-3-phenylpropan-1-amine] the same measures were below 6.30 and 5.30 to 6.30.
The corresponding values for `CNCCCOc1ccccc1-n1nc2c(N(C)Cc3ccccc3)nnc(C)c2c1C` [Example 40, N-benzyl-N,3,4-trimethyl-2-(2-(3-(methylamino)propoxy)phenyl)-2H-pyrazolo[3,4-d]pyridazin-7-amine] are below 6.30 and 5.30 to 6.30.
For `Cc1nnc(N(C)C)c2nn(-c3ccccc3OCC3NCCc4ccccc43)c(C)c12` (stereo not shown) [Example 29, N,N,3,4-tetramethyl-2-(2-((1,2,3,4-tetrahydroisoquinolin-1-yl)methoxy)phenyl)-2H-pyrazolo[3,4-d]pyridazin-7-amine] the same measures were below 6.30 and 5.30 to 6.30.
In the case of `CNCCC(Oc1cc(C#N)ccc1-n1nc2c(N(C)C)nnc(C)c2c1C)c1ccccc1` (stereo not shown) [Example 85, 4-(7-(Dimethylamino)-3,4-dimethyl-2H-pyrazolo[3,4-d]pyridazin-2-yl)-3-(3-(methylamino)-1-phenylpropoxy)benzonitrile], the negative logarithm of the Ki (pKi) was below 6.30 in test [1] (setting [3]) and below 5.30 in test [2] (setting [4]).
The corresponding values for `CNCCC(Oc1ccc(C(N)=O)cc1-n1nc2c(N(C)C)nnc(C)c2c1C)c1ccccc1` (stereo not shown) [Example 93, 3-(7-(dimethylamino)-3,4-dimethyl-2H-pyrazolo[3,4-d]pyridazin-2-yl)-4-(3-(methylamino)-1-phenylpropoxy)benzamide] are below 6.30 and below 5.30.
With `Cc1nnc(N(C)C)c2nn(-c3ccccc3OC(CCN(C)C)c3ccccc3)c(C)c12` (stereo not shown) [Example 52, 2-(2-(3-(Dimethylamino)-1-phenylpropoxy)phenyl)-N,N,3,4-tetramethyl-2H-pyrazolo[3,4-d]pyridazin-7-amine], the pKi in test [1] was 6.30 to 7.00; in test [2], 5.30 to 6.30.
On to `CNCCC(Oc1cc(O)ccc1-n1nc2c(N(C)C)nnc(C)c2c1C)c1ccccc1` (stereo not shown) [Example 98, 4-(7-(dimethylamino)-3,4-dimethyl-2H-pyrazolo[3,4-d]pyridazin-2-yl)-3-(3-(methylamino)-1-phenylpropoxy)phenol], for which the pKi in test [1] (setting [3]) was below 6.30; in test [2] (setting [4]), 5.30 to 6.30.
The corresponding values for `CNCCC(Oc1ccccc1-n1nc2c(N(C)CCOC)nnc(C)c2c1C)c1ccccc1` (stereo not shown) [Example 60, N-(2-methoxyethyl)-N,3,4-trimethyl-2-(2-(3-(methylamino)-1-phenylpropoxy)phenyl)-2H-pyrazolo[3,4-d]pyridazin-7-amine] are below 6.30 and 5.30 to 6.30.
For `CNCCC(Oc1ccc(C(=O)N(C)C)cc1-n1nc2c(N(C)C)nnc(C)c2c1C)c1ccccc1` (stereo not shown) [Example 96, 3-(7-(Dimethylamino)-3,4-dimethyl-2H-pyrazolo[3,4-d]pyridazin-2-yl)-N,N-dimethyl-4-(3-(methylamino)-1-phenylpropoxy)benzamide] the same measures were below 6.30 and below 5.30.
For `CNCCC(Oc1cc(Br)ccc1-n1nc2c(N(C)C)nnc(C)c2c1C)c1ccccc1` (stereo not shown) [Example 25, 2-(4-bromo-2-(3-(methylamino)-1-phenylpropoxy)phenyl)-N,N,3,4-tetramethyl-2H-pyrazolo[3,4-d]pyridazin-7-amine] the same measures were below 6.30 and 5.30 to 6.30.
`CNCCC(Oc1ccccc1-n1nc2c(N(C)CCCO)nnc(C)c2c1C)c1ccccc1` (stereo not shown) [Example 61, 3-((3,4-dimethyl-2-(2-(3-(methylamino)-1-phenylpropoxy)phenyl)-2H-pyrazolo[3,4-d]pyridazin-7-yl)(methyl)amino)propan-1-ol]: the negative-log Ki (pKi) was below 6.30 in test [1] (setting [3]) and 5.30 to 6.30 in test [2] (setting [4]).
As to `CCNCC[C@H](Oc1ccccc1-n1nc2c(N(C)C)nnc(C)c2c1C)c1ccccc1` [Example 102, (S)-2-(2-(3-(ethylamino)-1-phenylpropoxy)phenyl)-N,N,3,4-tetramethyl-2H-pyrazolo[3,4-d]pyridazin-7-amine], the negative logarithm of the Ki (pKi) is below 6.30 in test [1] and 5.30 to 6.30 in test [2].
In the case of `CNCCC(Oc1ccccc1-n1nc2c(N(C)C)nnc(C)c2c1C)c1cccc(C#N)c1` (stereo not shown) [Example 14, 3-(1-(2-(7-(dimethylamino)-3,4-dimethyl-2H-pyrazolo[3,4-d]pyridazin-2-yl)phenoxy)-3-(methylamino)propyl)benzonitrile], the negative-log Ki (pKi) was below 6.30 in test [1] (setting [3]) and 5.30 to 6.30 in test [2] (setting [4]).
As to `CNCCC(Cc1ccccc1)Oc1ccccc1-n1nc2c(N(C)C)nnc(C)c2c1C` (stereo not shown) [Example 77, N,N,3,4-tetramethyl-2-(2-((4-(methylamino)-1-phenylbutan-2-yl)oxy)phenyl)-2H-pyrazolo[3,4-d]pyridazin-7-amine], the pKi is below 6.30 in test [1] (setting [3]) and 5.30 to 6.30 in test [2] (setting [4]).
As for `Cc1nnc(N(C)C)c2nn(-c3ccccc3OCC3CCN(Cc4ccccc4)CC3)c(C)c12` [Example 57, 2-(2-((1-benzylpiperidin-4-yl)methoxy)phenyl)-N,N,3,4-tetramethyl-2H-pyrazolo[3,4-c]pyridazin-7-amine], the pKi is below 6.30 in test [1] (setting [3]) and below 5.30 in test [2] (setting [4]).
In the case of `Cc1nnc(N(C)C)c2nn(-c3ccccc3OC3CCNCC3)c(C)c12` [Example 13, N,N,3,4-tetramethyl-2-(2-(piperidin-4-yloxy)phenyl)-2H-pyrazolo[3,4-d]pyridazin-7-amine], the negative-log Ki (pKi) is below 6.30 in test [1] (setting [3]) and below 5.30 in test [2] (setting [4]).
Take `CNCCCOc1ccccc1-n1nc2c(N(C)C)nnc(C)c2c1C` [Example 4, N,N,3,4-tetramethyl-2-(2-(3-(methylamino)propoxy)phenyl)-2H-pyrazolo[3,4-d]pyridazin-7-amine]: the negative-log Ki (pKi) was below 6.30 in test [1] (setting [3]) and 5.30 to 6.30 in test [2] (setting [4]).
Consider `Cc1nnc(N(C)C)c2nn(-c3ccccc3OCC3CCN(CCc4ccccc4)CC3)c(C)c12` [Example 58, N,N,3,4-tetramethyl-2-(2-((1-phenethylpiperidin-4-yl)methoxy)phenyl)-2H-pyrazolo[3,4-d]pyridazin-7-amine], for which the values for the pKi in test [1] and in test [2] were above 7.00 and below 5.30, respectively.
Consider `Cc1nnc(N(C)C)c2nn(-c3ccccc3OC3CNCc4ccccc43)c(C)c12` (stereo not shown) [Example 32, N,N,3,4-tetramethyl-2-(2-((1,2,3,4-tetrahydroisoquinolin-4-yl)oxy)phenyl)-2H-pyrazolo[3,4-d]pyridazin-7-amine], for which the pKi in test [1] (setting [3]) was below 6.30; in test [2] (setting [4]), 5.30 to 6.30.
